Assay results: ChEMBL document CHEMBL3885861, “Open TG-GATES”

Species on record: Rattus norvegicus
Test: Open TG-GATES - Regimen: Daily Repeat
Format: toxicity, organism-based, Sprague-Dawley
Parameters: regimen Daily Repeat, gender Male, age 6 weeks
Details: in vivo, po, route gavage; for KIDNEY_L / KIDNEY_R / KIDNEY_TOTAL: tissue Kidney; for ALP / ALT / AST / BUN / CRE / Ca / Cl / DBIL / GLC / IP / K / LDH / Na / PL / RALB / TBIL / TC / TG / TP / gamma-GTP: tissue Plasma
[1] = 150 mg/kg, […], tissue Blood, dose level Middle, time 28 day
[2] = 150 mg/kg, […], dose level Middle, time 7 day
[3] = 150 mg/kg, […], dose level Middle, time 14 day
[4] = 150 mg/kg, […], dose level Middle, time 28 day
[5] = 450 mg/kg, 72 h, tissue Blood, dose level High, time 3 day

Work on `CC(=O)Oc1ccccc1C(=O)O` [ASPIRIN] yielded an MCH [1] of 19.6 pg, an MCHC [1] of 34.6% and an MCV [1] of 56.7 fL. The Mono [1] was 2.4%, the Neu [1] was 14.6% and the Plat [1] was 108.6 x10_4/uL. For the same compound, the RBC [1] was 789.2 x10_4/ul, the Ret [1] was 2.2% and the WBC [1] was 108.6 x10_2/uL. For the same compound, the KIDNEY_L [2] was 1.2 g, the KIDNEY_R [2] was 1.2 g and the KIDNEY_TOTAL [2] was 2.3 g. It also gave a KIDNEY_L [3] of 1.3 g, a KIDNEY_R [3] of 1.3 g and a KIDNEY_TOTAL [3] of 2.6 g. For the same compound, the KIDNEY_L [4] was 1.5 g, the KIDNEY_R [4] was 1.5 g and the KIDNEY_TOTAL [4] was 3 g. It also gave an ALP [2] of 901.8 IU/L, an ALT [2] of 35 IU/L and an AST [2] of 66.8 IU/L. For the same compound, the BUN [2] was 16 mg/dL, the CRE [2] was 0.4 mg/dL and the Ca [2] was 10.4 mg/dL. For the same compound, the Cl [2] was 102.4 meq/L, the DBIL [2] was 0.094 mg/dL and the GLC [2] was 211.6 mg/dL. It also gave an IP [2] of 8.5 mg/dL, a K [2] of 4 meq/L and an LDH [2] of 222.2 IU/L. For the same compound, the Na [2] was 141 meq/L, the PL [2] was 158.4 mg/dL and the RALB [2] was 3.2 g/dL. The TBIL [2] was 0.1 mg/dL, the TC [2] was 71.8 mg/dL and the TG [2] was 153.4 mg/dL. The TP [2] was 5.4 g/dL, the gamma-GTP [2] was 0.6 IU/L and the ALP [3] was 825.8 IU/L. For the same compound, the ALT [3] was 36.8 IU/L, the AST [3] was 77 IU/L and the BUN [3] was 14.6 mg/dL. The CRE [3] was 0.4 mg/dL, the Ca [3] was 10.4 mg/dL and the Cl [3] was 102.2 meq/L. For the same compound, the DBIL [3] was 0.092 mg/dL, the GLC [3] was 187.4 mg/dL and the IP [3] was 8 mg/dL. The K [3] was 4.2 meq/L, the LDH [3] was 252 IU/L and the Na [3] was 141.6 meq/L. For the same compound, the PL [3] was 158.6 mg/dL, the RALB [3] was 3.3 g/dL and the TBIL [3] was 0.1 mg/dL. For the same compound, the TC [3] was 72.4 mg/dL, the TG [3] was 151.4 mg/dL and the TP [3] was 5.5 g/dL. It also gave a gamma-GTP [3] of 0.8 IU/L, an ALP [4] of 641.6 IU/L and an ALT [4] of 35.8 IU/L. For the same compound, the AST [4] was 81.4 IU/L, the BUN [4] was 16.2 mg/dL and the CRE [4] was 0.5 mg/dL. The Ca [4] was 10.2 mg/dL, the Cl [4] was 102.8 meq/L and the DBIL [4] was 0.1 mg/dL. It also gave a GLC [4] of 229.2 mg/dL, an IP [4] of 7.3 mg/dL and a K [4] of 3.8 meq/L. The LDH [4] was 193 IU/L, the Na [4] was 142.2 meq/L and the PL [4] was 149.8 mg/dL. It also gave an RALB [4] of 3.4 g/dL, a TBIL [4] of 0.2 mg/dL and a TC [4] of 69.4 mg/dL. It also gave a TG [4] of 148.8 mg/dL, a TP [4] of 5.8 g/dL and a gamma-GTP [4] of 0.6 IU/L. For the same compound, the TERMINAL_BW (450 mg/kg, 72 h, dose level High, time 3 day) was 232.1 g, the APTT [5] was 24.9 s and the Bas [5] was 0%.
